Our source for the IC50 and DC50 values is US20250277012A1 (Protagonist Therapeutics, Inc., priority 2021, published 2025).

Read-outs that look alike come from different tables or passages of the source. Starred links: 1 amine or outer side, 2 acyl side, 3 side chain; linkers in the order of their positions; H or OH if unused. Positions of bridges follow the written chain, without caps; N, C: chain ends. Non-standard residues stand in square brackets, D forms with d. Residues, ends and D or L forms follow the SMILES beside them. Groups on a side chain read outwards from the residue. *: point of attachment. Nva(5-morpholino) = N[C@@H](CCCN1CCOCC1)C(=O)O; C18 diacid = O=C(O)CCCCCCCCCCCCCCCCC(=O)*; Dip = N[C@H](C(=O)O)C(c1ccccc1)c1ccccc1; γGlu = O=C(O)[C@H](CCC(=O)[*:2])N[*:1]; NMeY = CN[C@@H](Cc1ccc(O)cc1)C(=O)O; Palmitoyl = CCCCCCCCCCCCCCCC(=O)*; 3Pal = N[C@@H](Cc1cccnc1)C(=O)O; β3hF = N[C@H](CC(=O)O)Cc1ccccc1; Aad = N[C@@H](CCCC(=O)O)C(=O)O; NMeK = CN[C@@H](CCCCN)C(=O)O; Nicotinoyl = O=C(c1cccnc1)*; Isovaleryl = CC(C)CC(=O)*; dNMeS = CN[C@H](CO)C(=O)O; hCys = N[C@@H](CCS)C(=O)O; Dap = NC[C@H](N)C(=O)O; AEEA = NCCOCCOCC(=O)O; Ahx = NCCCCCC(=O)O

The target of experiment [1] is T1, ferroportin (Homo sapiens, UniProt Q9NP59).
T1 sequence (Q9NP59 1-571): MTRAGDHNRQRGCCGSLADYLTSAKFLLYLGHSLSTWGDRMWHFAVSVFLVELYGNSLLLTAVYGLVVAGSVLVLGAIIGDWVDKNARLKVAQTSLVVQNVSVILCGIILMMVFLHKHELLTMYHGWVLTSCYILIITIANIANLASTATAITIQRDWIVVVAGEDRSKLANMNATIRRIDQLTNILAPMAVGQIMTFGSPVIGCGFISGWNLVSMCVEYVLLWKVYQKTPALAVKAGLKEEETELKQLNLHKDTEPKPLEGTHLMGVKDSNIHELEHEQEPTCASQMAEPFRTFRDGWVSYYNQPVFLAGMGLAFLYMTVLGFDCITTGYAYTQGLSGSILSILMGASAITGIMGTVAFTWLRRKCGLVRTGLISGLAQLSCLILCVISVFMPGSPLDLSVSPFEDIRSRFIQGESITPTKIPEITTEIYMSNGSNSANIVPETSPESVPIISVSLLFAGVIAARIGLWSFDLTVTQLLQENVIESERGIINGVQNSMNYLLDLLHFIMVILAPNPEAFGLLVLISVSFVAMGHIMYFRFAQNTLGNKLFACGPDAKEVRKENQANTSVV
Nature of the experiment: T47D cell-based ferroportin internalization assay in presence of mouse serum albumin (MSA). Also noted: a human breast carcinoma adherent cell line which endogenously expresses ferroportin; host or cells: T47D. The procedure, abridged: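 Peptide potency for inducing ferroportin internalization was measured in T47D cells in the presence of serum albumin. Cells grown in RPMI with fetal bovine serum were seeded in 96-well plates at 80-100 k cells per well in 100 ul and rested overnight. Dilution series of test peptides were preincubated 30 min at room temperature, then added to the cells after the medium was aspirated.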

Experiment [2] deals with T1, ferroportin. Nature of the experiment: FPN activity assay: ferroportin-GFP internalization/degradation in HEK293 cells. Also noted: expressed in transfected cells. It is filed as cell-based. The note with it: read-out: FPN IC50. The protocol:
Following internalization, the ferroporin protein is degraded.
A retro inverse peptide is a peptide with a reversed sequence in all D amino acids. An example is that Hy-Glu-Thr-His-NH2 becomes Hy-DHis-DThr-DGlu-NH2. The EC50 of these reference compounds for ferroportin internalization/degradation was determined according to the FPN activity assay described above. These peptides served as control standards.

The mark [3] stands for this setting: T47D internalization assay in presence of mouse serum albumin (MSA), Table 6E.
The mark [4] stands for this setting: ferroportin-GFP internalization/degradation, HEK293 cells, Table 6E.
[5] abbreviates: T47D cells, 0.5% mouse serum albumin, 1 hr incubation.
The mark [6] stands for this setting: ferroportin-GFP HEK293 cells, at least 18 hours.

`CC(C)CC(=O)N[C@@H](CCCC(=O)O)C(=O)N[C@H](C(=O)N[C@@H](Cc1cccnc1)C(=O)N[C@H](C(=O)N1CCC[C@H]1C(=O)N[C@H]1CSSC[C@@H](C(=O)N(C)[C@@H](CCCCNC(=O)COCCOCCNC(=O)COCCOCCNC(=O)[C@H](CN)NC(=O)CCCCCCCCCCCCCCCCC(=O)O)C(=O)N[C@H](C(=O)N[C@H](CCCCN)C(N)=O)C(c2ccccc2)c2ccccc2)NC1=O)C(c1ccccc1)c1ccccc1)[C@@H](C)O` [compound 242] (Isovaleryl-[Aad]T[3Pal][Dip]PCC[NMeK]([AEEA-AEEA-Dap-C18 diacid])[Dip][dK]-NH2; disulfide 6-7): the IC50 in experiment [1] (setting [3]) lay within 10 to 100 nM. The DC50 in experiment [2] (setting [4]) was 10 to 100 nM.

On to `CC(C)CC(=O)N[C@@H](CCC(=O)O)C(=O)N[C@H](C(=O)N[C@@H](Cc1c[nH]cn1)C(=O)N[C@H](C(=O)N1CCC[C@H]1C(=O)N[C@H]1CSSC[C@@H](C(=O)N(C)[C@@H](CCCCNC(=O)COCCOCCNC(=O)COCCOCCNC(=O)[C@H](CN)NC(=O)CCCCCCCCCCCCCCCCC(=O)O)C(=O)N[C@H](CC(=O)N[C@H](CCCCN)C(=O)N(C)[C@@H](Cc2ccc(O)cc2)C(N)=O)Cc2ccccc2)NC1=O)C(c1ccccc1)c1ccccc1)[C@@H](C)O` [compound 259] (Isovaleryl-ETH[Dip]PCC[NMeK]([AEEA-AEEA-Dap-C18 diacid])[β3hF][dK][NMeY]-NH2; disulfide 6-7), for which, in experiment [1] (setting [3]), the IC50 is 10 to 100 nM. Further, the DC50 in experiment [2] (setting [4]) was 10 to 100 nM.

For the molecule `CC(C)CC(=O)N[C@@H](CCC(=O)O)C(=O)N[C@H](C(=O)N[C@@H](Cc1c[nH]cn1)C(=O)N[C@H](C(=O)N1CCC[C@H]1C(=O)N[C@H]1CSSC[C@@H](C(=O)N(C)[C@@H](CCCCNC(=O)COCCOCCNC(=O)COCCOCCNC(=O)[C@H](CN)NC(=O)CCCCCCCCCCCCCCCCC(=O)O)C(=O)N[C@H](CC(=O)N[C@@H](CCCN2CCOCC2)C(N)=O)Cc2ccccc2)NC1=O)C(c1ccccc1)c1ccccc1)[C@@H](C)O` [compound 265] (Isovaleryl-ETH[Dip]PCC[NMeK]([AEEA-AEEA-Dap-C18 diacid])[β3hF][Nva(5-morpholino)]-NH2; disulfide 6-7), the IC50 in experiment [1] (setting [3]) was in the range of 10 to 100 nM. Further, in experiment [2] (setting [4]), the DC50 lay in the range of 10 to 100 nM.

On to `C[C@@H](O)[C@H](NC(=O)[C@H](CCC(=O)O)NC(=O)c1cccnc1)C(=O)N[C@@H](Cc1c[nH]cn1)C(=O)N[C@H](C(=O)N1CCC[C@H]1C(=O)N[C@H]1CSSC[C@@H](C(=O)N(C)[C@@H](CCCCNC(=O)COCCOCCNC(=O)COCCOCCNC(=O)[C@H](CN)NC(=O)CCCCCCCCCCCCCCCCC(=O)O)C(=O)N[C@H](CC(=O)N[C@H](CCCCN)C(N)=O)Cc2ccccc2)NC1=O)C(c1ccccc1)c1ccccc1` [compound 299] (Nicotinoyl-ETH[Dip]PCC[NMeK]([AEEA-AEEA-Dap-C18 diacid])[β3hF][dK]-NH2; disulfide 6-7), for which the 50% inhibitory concentration (IC50) in experiment [1] (setting [3]) was 10 to 100 nM. For the same molecule, the DC50 in experiment [2] (setting [4]) was in the range of 10 to 100 nM.

Turning to `CC(C)CC(=O)N[C@@H](CCC(=O)O)C(=O)N[C@H](C(=O)N[C@@H](Cc1c[nH]cn1)C(=O)N[C@H](C(=O)N1CCC[C@H]1C(=O)N[C@H]1CSSC[C@@H](C(=O)N(C)[C@@H](CCCCNC(=O)COCCOCCNC(=O)COCCOCCNC(=O)[C@H](CN)NC(=O)CCCCCCCCCCCCCCCCC(=O)O)C(=O)N[C@H](CC(N)=O)Cc2ccccc2)NC1=O)C(c1ccccc1)c1ccccc1)[C@@H](C)O` [compound 295] (Isovaleryl-ETH[Dip]PCC[NMeK]([AEEA-AEEA-Dap-C18 diacid])[β3hF]-NH2; disulfide 6-7), the IC50 in experiment [1] (setting [3]) was 10 to 100 nM. The DC50 in experiment [2] (setting [4]) was in the range of 10 to 100 nM.

For `CC(C)CC(=O)N[C@@H](CCC(=O)O)C(=O)N[C@H](C(=O)N[C@@H](Cc1c[nH]cn1)C(=O)N[C@H](C(=O)N1CCC[C@H]1C(=O)N[C@H]1CCSSCC[C@@H](C(=O)N(C)[C@@H](CCCCNC(=O)COCCOCCNC(=O)COCCOCCNC(=O)[C@H](CN)NC(=O)CCCCCCCCCCCCCCCCC(=O)O)C(=O)N[C@H](CC(=O)N[C@H](CCCCN)C(N)=O)Cc2ccccc2)NC1=O)C(c1ccccc1)c1ccccc1)[C@@H](C)O` [compound 269] (Isovaleryl-ETH[Dip]P[hCys][hCys][NMeK]([AEEA-AEEA-Dap-C18 diacid])[β3hF][dK]-NH2; disulfide 6-7), in experiment [1] (setting [3]), the IC50 fell in the range of 10 to 100 nM. The DC50 in experiment [2] (setting [4]) was in the range of 10 to 100 nM.

As for `CC[C@H](C)[C@@H]1NC(=O)[C@@H](NC(=O)[C@@H]2CCCN2C(=O)[C@@H](NC(=O)[C@H](Cc2c[nH]cn2)NC(=O)[C@@H](NC(=O)[C@H](CCC(=O)O)NC(=O)CC(C)C)[C@@H](C)O)C(c2ccccc2)c2ccccc2)CSSC[C@@H](C(=O)N[C@H](CC(=O)N[C@@H](CCCCNC(=O)COCCOCCNC(=O)COCCOCCNC(=O)CC[C@H](NC(=O)CCCCCCCCCCCCCCCCC(=O)O)C(=O)O)C(=O)N[C@H](CCCCN)C(N)=O)Cc2ccccc2)NC1=O` [Compd 36] (Isovaleryl-ETH[Dip]PCIC[β3hF]K([AEEA-AEEA-γGlu-C18 diacid])[dK]-NH2; disulfide 6-8), in experiment [1] (setting [5]), the IC50 was in the range of 10 to 100 nM. In experiment [2] (setting [6]), the DC50 lay within 10 to 100 nM.

As for `CCCCCCCCCCCCCCCC(=O)NCCCCCC(=O)NCCCC[C@@H](C(=O)N[C@H](CC(=O)N[C@H](CCCCN)C(N)=O)Cc1ccccc1)N(C)C(=O)[C@@H]1CSSC[C@H](NC(=O)[C@@H]2CCCN2C(=O)[C@@H](NC(=O)[C@H](Cc2cnc[nH]2)NC(=O)[C@@H](NC(=O)[C@H](CCC(=O)OC)NC(=O)CC(C)C)[C@@H](C)O)C(c2ccccc2)c2ccccc2)C(=O)N1` [compound 307] (Isovaleryl-E(OMe)TH[Dip]PCC[NMeK]([Ahx-Palmitoyl])[β3hF][dK]-NH2; disulfide 6-7), in experiment [1] (setting [3]), the IC50 was in the range of 1 to 10 nM. In addition, in experiment [2] (setting [4]), the DC50 was in the range of 10 to 100 nM.

For `CCCCCCCCCCCCCCCC(=O)NCCCCCC(=O)NCCCC[C@H](NC(=O)[C@@H]1CSSC[C@H](NC(=O)[C@@H]2CCCN2C(=O)[C@@H](NC(=O)[C@H](Cc2c[nH]cn2)NC(=O)[C@@H](NC(=O)[C@H](CCC(=O)O)NC(=O)CC(C)C)[C@@H](C)O)C(c2ccccc2)c2ccccc2)C(=O)N1)C(=O)N[C@H](CC(=O)N[C@H](CCCCN)C(N)=O)Cc1ccccc1` [Compd 39] (Isovaleryl-ETH[Dip]PCCK([Ahx-Palmitoyl])[β3hF][dK]-NH2; disulfide 6-7), the IC50 in experiment [1] (setting [5]) was in the range of 1 to 10 nM. In experiment [2] (setting [6]), the DC50 lay within 10 to 100 nM.

Turning to `CC(C)CC(=O)N[C@@H](CCC(=O)O)C(=O)N[C@H](C(=O)N[C@@H](Cc1cnc[nH]1)C(=O)N[C@H](C(=O)N1CCC[C@H]1C(=O)N[C@H]1CSSC[C@@H](C(=O)N(C)[C@@H](CCCCNC(=O)COCCOCCNC(=O)COCCOCCNC(=O)[C@H](CN)NC(=O)CCCCCCCCCCCCCCCCC(=O)O)C(=O)N[C@H](C(=O)N(C)[C@@H](CCCCN)C(N)=O)C(c2ccccc2)c2ccccc2)NC1=O)C(c1ccccc1)c1ccccc1)[C@@H](C)O` [compound 275] (Isovaleryl-ETH[Dip]PCC[NMeK]([AEEA-AEEA-Dap-C18 diacid])[Dip][NMeK]-NH2; disulfide 6-7), in experiment [1] (setting [3]), the IC50 lay within 10 to 100 nM. In addition, the DC50 in experiment [2] (setting [4]) was 10 to 100 nM.

For `CC(C)CC(=O)N[C@@H](CCC(=O)O)C(=O)N[C@H](C(=O)N[C@@H](Cc1cnc[nH]1)C(=O)N[C@H](C(=O)N1CCC[C@H]1C(=O)N[C@H]1CSSC[C@@H](C(=O)N(C)[C@@H](CCCCNC(=O)COCCOCCNC(=O)COCCOCCNC(=O)[C@H](CN)NC(=O)CCCCCCCCCCCCCCCCC(=O)O)C(=O)N[C@H](CC(=O)N[C@H](CCCCN)C(=O)N(C)[C@H](CO)C(N)=O)Cc2ccccc2)NC1=O)C(c1ccccc1)c1ccccc1)[C@@H](C)O` [compound 247] (Isovaleryl-ETH[Dip]PCC[NMeK]([AEEA-AEEA-Dap-C18 diacid])[β3hF][dK][dNMeS]-NH2; disulfide 6-7), the IC50 in experiment [1] (setting [3]) lay within 1 to 10 nM. For the same molecule, the DC50 in experiment [2] (setting [4]) is 10 to 100 nM.
